Values after ≈ are worked out from the molar mass of the structure shown.
What was measured:
[1] = tested on: Thp1 human monocytic cells; assay: Thp1 Monocyte ATP Production Assay (ATPlite); format: cell-based; settings: for IC50: Thp1 cells, 24 hour incubation, 9-point concentration range from 10 μM to 10 nM, mean of 2 independent experiments; for potency in the Thp1 monocytic ATP assay (in words): as compared to the reference compounds
Protocol: In vitro potency of test compounds was determined by incubation with Thp1 human monocytic cells and subsequent determination of Adenosine TriPhosphate (ATP) levels using firefly luciferase.
ATP is present in all metabolically active cells. When cells lose integrity, their ability to synthesise ATP is rapidly lost. […] See, e.g., Kang et al., 2015; Jiang et al., 2013. Levels of ATP can be monitored using a system based on firefly (Photinus pyralis) luciferase (see, e.g., Auld et al., 2009) using commercially available kits. A system known as ATPlite™ was using to measure effects of the test compounds on cellular viability in vitro. This one-step assay system is an adenosine triphosphate (ATP) monitoring system based on the production of light caused by the reaction of ATP from the cells with added luciferase and D-luciferin, as illustrated in the reaction scheme below:
Thp1 cells were plated at 112500 cells per well in 125 μL RPMI-1640 (no glucose) with 1% FBS in 96-well plates. Test compounds were prepared as 100 mM solutions in DMSO. These stock solutions were diluted in DMSO and then diluted 1000× in culture medium (RPMI) before being added directly to the wells so as to give the desired final compound concentration. After a 24 hour incubation at 37° C./5% CO2, ATPLite™ (Perkin Elmer) was added to each well (1:10 v/v, 10 μL). The plate was then incubated at room temperature for 5 minutes and the emitted light was quantified on Viewlux with a measurement time of 0.3 seconds and binning 4×4.
The average results for each test compound were expressed as a percent (%) of the average control value reflecting cell viability. The average values across the concentrations tested were then plotted and the IC50 for was calculated by fitting the data to a 4-parameter IC50 equation using software from Graf it (Erithacus Software). Each experiment was repeated twice and the data are presented as the mean IC50 from both experiments.

[2] = Aqueous solubility in FaSSIF; format: physicochemical; settings: for solubility at 16 h: kinetic from dmso stock
Protocol: Aqueous solubility was measured by equilibration of compounds with fasted state simulated intestinal fluid (FaSSIF) and quantified spectrophotometrically.
Preparation of blank FaSSIF: 0.21 g of sodium hydroxide (NaOH) pellets, 1.97 g of dihydrogen sodium phosphate (NaH2PO4.2H2O) and 3.09 g of sodium chloride (NaCl) were dissolved in 400 mL of deionised water. The pH was adjusted to 6.5 using 1 M hydrochloric acid and further deionised water added to a final volume of 500 mL.
Preparation of FaSSIF: 0.056 g of SIF Powder (containing sodium taurocholate and lecithin) (Pharses A G) was dissolved in 25 mL of blank FaSSIF and stirred until the powder was completely dissolved. The solution was allowed to stand for 2 hours during which it became opalescent; it was used within 24 hours. The final solution composition was characterised as follows: • Sodium taurocholate: 3 mM • Lecithin: 0.75 mM • Osmolarity: 270±10 mOsmol • pH: 6.5
The optical density was measured at the end of the incubation period for test compounds and a reference used to determine solubility. In brief, two samples were prepared for each determination: a reference sample consisting of a stock solution of test compound in DMSO diluted in system solution (a phosphate free, low absorption buffer) and propanol; and a test sample (prepared in triplicate) consisting of 0.5 mL FaSSIF spiked with test compound at 0.2 mM. Each sample was incubated at room temperature for 16 hours with constant shaking at 250 rpm. At the end of the incubation period, 0.3 mL of each sample was filtered through a pION filter plate (PION, Woburn MA), diluted 1:1 with propanol and scanned using UV spectrophotometry at Amax ([…]) using a Spectra Max Plus—Version 2.1000 (Molecular Devices, Sunnyvale, CA), with pSOL Explorer solubility determination software (pION, Woburn, MA).
FaSSIF solubility was calculated using the following formula:
[formula] • wherein: • “OD” is the optical density; • “Cr” is the concentration of the reference (33.4 μM); and • “molecular weight” is for the test compound (e.g., 381.44 for ABD735).

[3] = molecular target: hERG (Homo sapiens (Human), UniProt Q12809); assay: hERG Ion Channel binding assay (3H astemizole displacement); settings: human, membranes of HEK293 cells stably expressing hERG, pH 7.4, probe 3H astemizole (1.5 nM); 30 μM; displacement of 3H astemizole, hERG-HEK293 membranes
Chain of hERG (Q12809 whole entry): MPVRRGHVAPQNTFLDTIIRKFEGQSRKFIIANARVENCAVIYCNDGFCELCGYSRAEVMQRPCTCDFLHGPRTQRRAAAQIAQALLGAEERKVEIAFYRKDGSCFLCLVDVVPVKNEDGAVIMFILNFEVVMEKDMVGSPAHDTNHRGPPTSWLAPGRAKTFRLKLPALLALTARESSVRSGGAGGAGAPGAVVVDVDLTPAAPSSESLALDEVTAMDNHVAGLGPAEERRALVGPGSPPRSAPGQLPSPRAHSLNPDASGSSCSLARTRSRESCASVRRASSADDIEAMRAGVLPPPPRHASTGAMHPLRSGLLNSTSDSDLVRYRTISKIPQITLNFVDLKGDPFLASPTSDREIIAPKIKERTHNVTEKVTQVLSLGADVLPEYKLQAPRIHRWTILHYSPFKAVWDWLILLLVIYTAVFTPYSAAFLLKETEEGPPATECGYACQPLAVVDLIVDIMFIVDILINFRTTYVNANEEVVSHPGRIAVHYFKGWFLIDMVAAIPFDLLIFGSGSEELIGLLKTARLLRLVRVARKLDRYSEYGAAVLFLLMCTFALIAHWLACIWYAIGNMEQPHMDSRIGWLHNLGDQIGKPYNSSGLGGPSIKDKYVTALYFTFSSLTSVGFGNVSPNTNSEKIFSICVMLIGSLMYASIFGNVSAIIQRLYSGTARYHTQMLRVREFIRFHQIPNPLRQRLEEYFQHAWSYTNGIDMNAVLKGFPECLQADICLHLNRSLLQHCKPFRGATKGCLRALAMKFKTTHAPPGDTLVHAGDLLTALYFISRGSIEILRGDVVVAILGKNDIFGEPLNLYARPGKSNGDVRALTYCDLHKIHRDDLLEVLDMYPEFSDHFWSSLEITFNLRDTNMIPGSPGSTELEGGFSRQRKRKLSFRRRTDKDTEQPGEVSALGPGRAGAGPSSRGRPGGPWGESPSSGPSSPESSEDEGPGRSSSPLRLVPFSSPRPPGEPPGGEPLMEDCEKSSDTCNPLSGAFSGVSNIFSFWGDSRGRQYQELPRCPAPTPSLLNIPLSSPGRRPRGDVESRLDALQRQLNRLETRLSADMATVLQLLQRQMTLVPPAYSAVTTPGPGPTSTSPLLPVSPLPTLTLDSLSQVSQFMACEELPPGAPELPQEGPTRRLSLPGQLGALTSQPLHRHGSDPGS
Outline: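 Membranes from stably transfected hERG-HEK293 cells incubated with 1.5 nM ³H-astemizole ± test compound in HEPES buffer pH 7.4 (0.1% BSA, 5 mM KCl, 130 mM NaCl) at 25° C for 60 min. Bound ligand measured by filtration and scintillation counting; reported as % displacement (0% none, 100% complete).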

[4] = pH 6.5, 16 hours, room temperature

Row | IC50 ([1]; Homo sapiens, THP-1) [nM] | solubility at 16 h [2, 4] [µg/mL] | solubility (in words) [2] | SMILES | IC50 [1] [nM] | Solubility [2, 4] | Solubility ([2]; pH 6.8) [mg/mL] | potency in the Thp1 monocytic ATP assay (in words) [1] | inhibition at 60 min, 30 µM [3] [%]
1 | – | – | – | CC1(O)CCC(NS(=O)(=O)c2ccc(-c3ccc(F)cc3F)cc2)CC1 (stereo not drawn) [ABD899, reference compound] | 200 | 0.06 ^(3) mg/mL | 0.13 (≈ 341 µM) | – | –
2 | 1100 | 62 (≈ 149 µM) | particularly good solubility | CC(=O)N1CCC(CS(=O)(=O)c2ccc(-c3ccc(C#N)cc3Cl)cc2)CC1 [NASMP-05, 4′-(((1-Acetylpiperidin-4-yl)methyl)sulfonyl)-2-chloro-[1,1′-biphenyl]-4-carbonitrile] | – | – | – | – | 23
3 | 900 | 83 (≈ 199 µM) | particularly good solubility | CC(=O)N1CCC(CS(=O)(=O)c2ccc(-c3ccc(Cl)cc3C#N)cc2)CC1 [NASMP-06, 4′-(((1-Acetylpiperidin-4-yl)methyl)sulfonyl)-4-chloro-[1,1′-biphenyl]-2-carbonitrile] | – | – | – | – | 35
4 | 800 | 89 (≈ 201 µM) | particularly good solubility | CC(=O)N1CCC(CS(=O)(=O)c2ccc(-c3ccc(C(F)(F)F)cc3F)cc2)CC1 [NASMP-07, 1-(4-(((2′-Fluoro-4′-(trifluoromethyl)-[1,1′-biphenyl]-4-yl)sulfonyl)methyl)piperidin-1-yl)ethan-1-one] | – | – | – | excellent potency | 79
5 | 1400 | 28 (≈ 71.2 µM) | – | CC(=O)N1CCC(CS(=O)(=O)c2ccc(-c3c(F)cccc3F)cc2)CC1 [NASMP-09, 1-(4-(((2′,6′-Difluoro-[1,1′-biphenyl]-4-yl)sulfonyl)methyl)piperidin-1-yl)ethan-1-one] | – | – | – | – | 7
6 | 100 | 68 (≈ 147 µM) | particularly good solubility | CC(=O)N1CCC(CS(=O)(=O)c2ccc(-c3ccc(F)cc3F)cc2C(F)(F)F)CC1 [NASMP-12, 1-(4-(((2′,4′-Difluoro-3-(trifluoromethyl)-[1,1′-biphenyl]-4-yl)sulfonyl)methyl)piperidin-1-yl)ethan-1-one] | – | – | – | excellent potency | 35
7 | 600 | 73 (≈ 179 µM) | particularly good solubility | CCC(=O)N1CCC(CS(=O)(=O)c2ccc(-c3ccc(F)cc3F)cc2)CC1 [NASMP-15, 1-(4-(((2′,4′-Difluoro-[1,1′-biphenyl]-4-yl)sulfonyl)methyl)piperidin-1-yl)propan-1-one] | – | – | – | excellent potency | 45

Row | SMILES | IC50 ([1]; Homo sapiens, THP-1) [nM] | solubility at 16 h [2, 4] [µg/mL] | solubility (in words) [2] | IC50 [1] [nM] | Solubility [2, 4] | Solubility ([2]; pH 6.8) [mg/mL] | potency in the Thp1 monocytic ATP assay (in words) [1] | inhibition at 60 min, 30 µM [3] [%]
8 | CC(=O)N1CCC(CS(=O)(=O)c2ccc(-c3ccc(F)cc3F)cc2)CC1 [NASMP-01, 1-(4-(((2′,4′-Difluoro-[1,1′-biphenyl]-4-yl)sulfonyl)methyl)piperidin-1-yl)ethan-1-one] | 1000 | 75 (≈ 191 µM) | – | – | – | – | excellent potency | 14

Reference: patent publication US12162836B2, “N-acyl-{4-[(4-aryl-phenyl)sulfonylmethyl]piperidine} compounds and their therapeutic use” (Modern Biosciences Limited, priority 2019, dated 2024)
